Values quoted from earlier work as cited in patent US20120100192A1, “LOCAL THERAPEUTIC RELEASE DEVICE” (DEXCEL PHARMA TECHNOLOGIES LTD., priority 2009, published 2012).

Experiments:
[1] = system: naturally occurring periodontitis; conditions: application for 6-12 months, beagle dogs
[2] = system: experimentally induced periodontal disease; conditions: Macaca mulatta monkeys
[3] = system: periodontal disease; conditions: 100 mg/day for two months; standardized radiography, radiopharmaceutical uptake
[4] = system: alveolar bone loss; conditions: 24 months, FBP-treated patient group
[5] = system: periodontal disease; conditions: topical toothpaste, 1% w/w, twice daily for 12 months

CC(C(=O)O)c1ccc(-c2ccccc2)c(F)c1 (centres unmarked) [FBP, flurbiprofen]
Effect on alveolar bone loss [1]: inhibited alveolar bone loss | Effect on attachment, bleeding on probing and gingival redness [2]: significant inhibition of attachment, bleeding on probing and gingival redness | Effect on bone metabolism [3]: increased bone metabolism | Effect on bone loss [4]: reduction in bone loss | Effect on bone [5]: statistically significant bone gain
